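Briefly, cells in 96-well plates were exposed to five compound concentrations for 48 h, and endpoints were estimated by linear interpolation. The concentration for full growth arrest is given as TGI.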 Where a SMILES comes first, the peptide text is derived from it. The star is where a group is joined. Boc = CC(C)(C)OC(=O)*; OtBu = CC(C)(C)O*
Key:
Test in all cases: NCI-60 cell line screen, 48 h
MDA-N = test system: MDA-N
OVCAR-3 ovarian = test system: OVCAR-3 ovarian
HOP-62 NSCLC = test system: HOP-62 NSCLC
DU-145 prostate = test system: DU-145 prostate
T-47D breast = test system: T-47D breast
RPMI-8226 leukemia = test system: RPMI-8226 leukemia
BT-549 breast = test system: BT-549 breast
SF-539 CNS = test system: SF-539 CNS
EKVX NSCLC = test system: EKVX NSCLC
SF-268 CNS = test system: SF-268 CNS
SK-MEL-28 melanoma = test system: SK-MEL-28 melanoma

SMILES	TGI (MDA-N) [µM]	TGI (OVCAR-3 ovarian) [µM]	TGI (HOP-62 NSCLC) [µM]	TGI (DU-145 prostate) [µM]	TGI (T-47D breast) [µM]	TGI (RPMI-8226 leukemia) [µM]	TGI (BT-549 breast) [µM]	TGI (SF-539 CNS) [µM]	TGI (EKVX NSCLC) [µM]	TGI (SF-268 CNS) [µM]	TGI (SK-MEL-28 melanoma) [µM]
O=C(NNC(=O)c1cc2ccccc2[nH]1)c1cc2ccccc2[nH]1	> 100	> 100	> 100	> 100	> 100	> 100	> 100	> 100	> 100	> 100	> 100
CC(=O)OCC1OC(NC(=S)Nn2c(-c3ccccc3)nc3ccccc3c2=O)C(OC(C)=O)C(OC(C)=O)C1OC(C)=O (stereo unspecified)	> 100	> 100	> 100	> 100	60.2	> 100	> 100	> 100	> 100	> 100	> 100
CC(=O)OCC1OC(Sc2nc(-c3ccccc3)c(C#N)c(=O)n2C2OC(COC(C)=O)C(OC(C)=O)C(OC(C)=O)C2OC(C)=O)C(OC(C)=O)C(OC(C)=O)C1OC(C)=O (stereo unspecified)	> 100	> 100	> 100	> 100	> 100	> 100	> 100	> 100	> 100	> 100	> 100
O=[N+]([O-])C1=Cc2c(O)ccc(O)c2C2c3ccccc3NC12 (stereo unspecified)	39.3	19.3	25	> 54	> 55.8	63.6	25.8	63	28.6	36.6	43
COC(=O)c1nc2n(n1)-c1ccccc1C(=O)N(Cc1ccccc1)C2	> 100	> 100	> 100	> 100	> 100	> 100	> 100	> 100	> 100	> 100	> 100
CCOC(=O)c1c2ccccc2n2c(=O)n(-c3ccccc3)nnc12	> 100	> 100	> 100	> 100	71.5	> 100	> 100	> 100	> 100	> 100	> 100
O=[N+]([O-])c1ccc(-c2ccc([C@H]3CC(c4cc(F)c(Cl)cc4Cl)=NN3)o2)cc1	> 100	> 100	> 100	> 100	61.8	> 100	90.9	30.1	> 100	> 100	–
CC(C)(C)OC(=O)CC(NC(=O)OC(C)(C)C)C(=O)NC(Cc1ccccc1)C(N)=O (stereo unspecified) (Boc-Asp(OtBu)-Phe-NH2; configuration not given here)	> 100	> 100	> 100	> 100	> 100	> 100	> 100	> 100	> 100	> 100	> 100
CN(C)CCCCN1c2ccccc2Sc2ccc(N=[N+]=[N-])cc21	3.59	20	25.1	18.2	13.5	5.45	24.5	16.8	26.3	19.5	3.6
Cc1ccc(Nc2nc3ccccc3nc2NS(=O)(=O)c2ccc(N)cc2)cc1	> 100	> 100	> 100	> 100	> 100	> 100	> 100	> 100	> 100	> 100	> 100
COc1cc(Nc2nc(NS(=O)(=O)c3cc(C)c(Cl)cc3S)n[nH]2)cc(OC)c1OC	> 100	> 100	> 100	> 100	> 100	> 100	> 100	> 100	> 100	> 100	> 100
COc1ccc(CC(COS(=O)(=O)c2ccc(C)cc2)NS(=O)(=O)c2ccc(C)cc2)cc1 (stereo unspecified)	> 62.6	27.8	41.2	28.9	21	> 100	23.7	> 100	31.6	39	35.2
CCOC(=O)c1sc(N)nc1N1CCCC1	> 100	> 100	> 100	> 100	> 100	> 100	> 100	> 100	> 100	–	> 100
O=c1oc2cc(O)ccc2c(O)c1C(c1ccc(/C=C/c2ccccc2)cc1)c1c(O)c2ccc(O)cc2oc1=O	> 100	> 100	> 100	> 100	> 100	> 100	> 100	> 100	> 100	> 100	60.5
CCOc1cc(NC(C)=O)ccc1C(=O)NN1C(=O)/C(=C/c2ccc(Cl)cc2)N=C1c1ccccc1	> 100	> 100	> 100	> 100	77.1	> 100	> 100	> 100	> 100	–	> 100
COc1ccc(CCN2C(=O)C(=O)C(C(=O)c3ccccc3)C2c2ccccc2)cc1OC (stereo unspecified)	> 100	> 100	> 100	> 100	> 100	> 100	> 100	> 100	> 100	> 100	> 100
CCOC(=O)c1nc2ccccc2nc1Oc1ccc(F)cc1	> 100	> 100	> 100	> 100	> 100	> 100	> 100	> 100	> 100	> 100	> 100
COc1ccc(Cc2nc3cc(C(F)(F)F)ccc3n2C[C@@H]2CCCN3CCCCC23)cc1 (stereo partly specified)	13.2	12.8	23.2	26.6	22.9	94.8	28.5	28.1	27.7	19	27.6

SMILES	TGI (MDA-N) [µM]	TGI (OVCAR-3 ovarian) [µM]	TGI (HOP-62 NSCLC) [µM]	TGI (DU-145 prostate) [µM]	TGI (T-47D breast) [µM]	TGI (RPMI-8226 leukemia) [µM]	TGI (BT-549 breast) [µM]	TGI (SF-539 CNS) [µM]	TGI (EKVX NSCLC) [µM]	TGI (SF-268 CNS) [µM]	TGI (SK-MEL-28 melanoma) [µM]
CC(C)CCNC(=O)c1ccc(CNC(=O)/C=C/c2ccc3c(c2)-c2ccccc2C3)cc1	> 100	> 100	44.8	> 100	> 100	> 100	> 100	> 100	> 100	> 100	> 100
CC(C)C1CC(CO)(CNc2nc(N)nc(Cl)c2C=O)C1 (stereo unspecified)	9.31	8.77	37	29.1	> 100	> 100	52.2	41.5	11.4	> 23.7	3.62
COc1cc(CCNC2=CC(=O)c3ncccc3C2=O)ccc1O	2.72	5.97	9.5	12.3	> 63.6	30.5	2.99	7.83	37.9	47.4	4.09
COc1ccc2nc3cc(Cl)ccc3c(NCCCN(C)CCCNc3ccc4ncn5c6ccccc6c(=O)c3c45)c2c1	4.77	6.79	6.1	7.19	> 17.3	> 25	4.59	5.26	7.15	12.6	7.38
CC(C)=CCN1c2ccccc2[C@@]2(CC=C(C)C)CCN(C)[C@@H]12	> 100	57.3	55	> 100	50.3	51	> 100	64.9	64.3	> 100	> 100
C/C(=C/C(=O)N(C)c1ccccc1Cl)O[Si](C(C)C)(C(C)C)C(C)C	68.7	33.5	74.4	> 100	> 100	63.9	56.6	38.3	75.3	46.4	> 100
CCOP(=O)(OCC)/C(F)=C/c1ccc(F)cc1	> 100	> 100	> 100	> 100	> 100	> 100	> 100	> 100	> 100	> 100	> 100
NC(C(=O)O)C(O)c1cnc[nH]1 (stereo unspecified)	> 100	> 100	> 100	> 100	> 100	> 100	> 100	> 100	> 100	> 100	> 100
CC(=O)O[C@H]1CC[C@@]2(C)C(=CC[C@@H]3[C@@H]2CC[C@]2(C)C(=O)/C(=C\c4ccccc4)C[C@@H]32)C1	> 100	> 100	> 100	> 100	> 100	> 100	> 100	> 100	> 100	> 100	> 100
COC(=O)C#CC1(O)C=CC(=O)C=C1	> 34.5	1.6	15.7	16.7	3.74	2.67	3.42	> 35.1	24.5	3.18	1.67
COc1ccc2c(c1)SC1=Nc3sc4cc(OC)ccc4[n+]3CN12	> 100	21.5	> 100	> 100	38.3	88.4	> 100	> 100	> 100	28.5	–
O=C1C(CN2CCCC2)CCC1CN1CCCC1 (stereo unspecified)	29.9	32.1	> 100	> 100	37.8	34.9	31.8	35.3	> 82.7	46.2	33.9
CC(=O)OC(C(=O)NNC(=O)OC(C)(C)C)c1ccccc1 (stereo unspecified)	> 100	> 100	> 100	> 100	> 100	> 100	> 100	> 100	> 100	> 100	> 100
COC1=C(OC)C(=O)c2cc(C)c(=O)c(C)cc2C1=O	6.84	24	36.6	32.6	> 55.4	40.7	28.5	33.1	31.5	37.1	31
CC(=O)OCCn1c(Cc2ccc(Cl)cc2)nn(C(C)=O)c1=O	> 100	> 100	–	> 100	> 100	> 100	> 100	> 100	> 100	> 100	> 100
COc1ccccc1Nc1nc(N)nc(N)c1N	32.9	> 100	> 100	> 100	> 100	82.7	> 100	> 100	> 100	> 100	> 100
CN(C)CCC(C#N)(c1ccccc1)c1ccccc1	> 100	> 100	> 100	> 100	> 100	80.5	> 100	> 100	> 100	> 100	58.4
CCc1c(N=[N+]=[N-])c2ccccc2oc1=O	> 100	> 100	> 100	> 100	> 100	> 100	> 100	> 100	> 100	> 100	> 100

Source: PubChem BioAssay (NCI)
